Read-outs that look alike come from different tables or passages of the source.
What was measured:
CB1 receptor [1] = molecular target: T1, CB1 receptor (Mus musculus, UniProt P47746); test: [35S]GTPγS binding in mouse brain membranes; type: biochemical
T1 construct: crude membranes from mouse brain for CB1 receptor; from tissue; host or cells: mouse brain membranes (crude / P2)
Description: [^35S]GTPγS binding. Mouse brains were dissected and P2 membranes prepared and resuspended at ˜6 μg protein/μL in 1 ml assay buffer (50 mM Tris HCl, 9 mM MgCl2, 0.2 mM EGTA, 150 mM NaCl; pH 7.4). […] Briefly, membranes (10 μg protein) were incubated in assay buffer containing 100 μM GDP, 0.05 nM [^35S]GTPγS, test compounds at 1 nM-1 μM, and 1.4 mg/mL fatty acid-free BSA in siliconized glass tubes. Bound ligand was separated from free by vacuum filtration. Non-specific binding was determined using 10 μM GTPS. Basal binding was assayed in the absence of the ligand and in the presence of GDP.

[2] = system: mice with diet-induced obesity (DIO); test: HFD-induced hepatic steatosis and liver injury; type: in vivo, mouse; conditions: for HFD-induced hepatic steatosis (fat vacuoles in the liver): DIO mice, 10 mg/kg/d ip
Description: (§1) Blood and urine biochemistry. Serum and urine levels of creatinine as well as serum levels of ALT, AST, ALP, HDL, LDL, TG and cholesterol were determined by using the Cobas C-111 chemistry analyzer (Roche, Switzerland). Creatinine clearance was calculated using urine and serum creatinine levels (CCr mL/h=Urine creatinine mg/dL×Urine volume/Serum creatinine mg/dL×24 hrs). Serum insulin levels were measured by an ELISA kit (Crystal Chem, Inc., Downers Grove, IL, USA). Fasting blood glucose was measured using the Elite glucometer (Bayer, Pittsburgh, PA).
Histopathological Analyses. 5 μm paraffin-embedded liver sections from 5 animals per group were stained with hematoxylin-eosin staining. Liver images were captured with a Zeiss AxioCam ICc5 color camera mounted on a Zeiss Axio Scope.A1 light microscope and taken from 10 random 40× fields of each animal.

mice [3] = test: Centrally-mediated hyperactivity / activity profile; type: in vivo, mouse; conditions: for activity profile / hyperactivity vs vehicle group: single dose IP: rimonabant 10, TMP 35, EST 40, IDB 20 mg/kg
Description: (§2) Locomotor activity. Locomotor activity was quantified by the number of disruptions of infrared XYZ beam arrays with a beam spacing of 0.25 cm in the Promethion High-Definition Behavioral Phenotyping System (Sable Instruments, Inc., Las Vegas, NV, USA).
Centrally-mediated hyperactivity profile. […] Mice were placed in metabolic cages and their activity profile was evaluated. Locomotor activity was quantified by the number of disruptions of infrared XYZ beam arrays with a beam spacing of 0.25 cm in the Promethion High-Definition Behavioral Phenotyping System (Sable Instruments, Inc., Las Vegas, NV, USA).

[4] = system: mice with diet-induced obesity (DIO); test: Multi-parameter metabolic assessment (indirect calorimetry) in DIO mice; type: in vivo, mouse; conditions: for HFD-induced reduction in VO2 / HFD-induced reduction in fat oxidation / HFD-induced reduction in total energy expenditure: DIO mice, 10 mg/kg/d ip
Description: Multi-parameter metabolic assessment. Metabolic profile of the mice was assessed by using the Promethion High-Definition Behavioral Phenotyping System (Sable Instruments, Inc., Las Vegas, NV, USA). Data acquisition and instrument control were performed using MetaScreen software version 2.2.18.0, and the obtained raw data were processed using ExpeData version 1.8.4 using an analysis script detailing all aspects of data transformation. Mice with free access to food and water were subjected to a standard 12 h light/12 h dark cycle, which consisted of a 48 h acclimation period followed by 24 h of sampling. Respiratory gases were measured by using the GA-3 gas analyzer (Sable Systems, Inc., Las Vegas, NV, USA) using a pull-mode, negative-pressure system. Air flow was measured and controlled by FR-8 (Sable Systems, Inc., Las Vegas, NV, USA), with a set flow rate of 2000 mL/min. Water vapor was continuously measured and its dilution effect on O2 and CO2 was mathematically compensated. Effective mass was calculated by [body mass]^0.75. Fat oxidation (FO) and carbohydrate oxidation (CHO) were calculated as FO=1.69×VO2−1.69×VCO2 and CHO=4.57×VCO2−3.23×VO2 and expressed as g/d/kg^eff.Mass.

[5] = system: mice with diet-induced obesity (DIO); test: Glycemic control (ipGTT, ipIST, glucose, insulin) in DIO mice; type: in vivo, mouse; conditions: for HFD-induced glucose intolerance / HFD-induced hyperglycemia: DIO mice, 10 mg/kg/d ip
Description: Glucose tolerance (ipGTT) test and insulin sensitivity tests (ipIST). Mice that fasted overnight were injected with glucose (1.5 g/kg, ip), followed by a tail blood collection at 0, 15, 30, 45, 60, 90, and 120 minutes. Blood glucose levels were determined using the Elite glucometer (Bayer, Pittsburgh, PA). On the following day, mice were fasted for 6 h before receiving insulin (0.75 U/kg, i.p.; Eli Lilly, […], USA or Actrapid® vial, novo nordisk A/S, Denmark), and blood glucose levels were determined at the same intervals as above.
as §1

[6] = system: mice with diet-induced obesity (DIO); test: Body weight, adiposity and food intake in diet-induced obese mice; type: in vivo, mouse
Text: Mice. The experimental protocol used was approved by the Institutional Animal Care and Use Committee of the Hebrew University, which is an AAALAC International accredited institute. Male 6 week old C57Bl/6J mice were obtained from Harlan Laboratories. Mice were maintained under a 12-h light/dark cycle and fed ad libitum. To generate diet-induced obesity, C57Bl6/J mice were fed either a high-fat diet (HFD) (60% of calories from fat, 20% from protein, and 20% from carbohydrates; Research Diet, D12492) or a standard laboratory diet (STD, 14% fat, 24% protein, 62% carbohydrates; NIH-31 rodent diet) for 14 weeks.
Age-matched control mice on STD received vehicle daily. Body weight and food intake were monitored daily. Total body fat and lean masses were determined by EchoMRI-100H™ (Echo Medical Systems LLC, Houston, TX, USA). 24 h urine was collected one week before euthanasia using mouse metabolic cages (CCS2000 Chiller System, Hatteras Instruments, NC, USA). At weeks 20 mice were euthanized by a cervical dislocation under anesthesia, the kidneys, brain, liver, fat pads, and muscles were removed and weighed, and samples were either snap-frozen or fixed in buffered 4% formalin Trunk blood was collected for determining the biochemical parameters.

[7] = system: mice with diet-induced obesity (DIO); test: Serum lipids (dyslipidemia) in DIO mice; type: in vivo, mouse; conditions: 20 mg/kg/day for 20 days
Description: as §1

CB1 receptor [8] = molecular target: T1, CB1 receptor; test: [3H]CP-55,940 radioligand displacement assay; type: binding; conditions: for Ki: [3H]CP-55,940, crude membranes from mouse brain
Description: Radioligand binding assays. BNS-002 binding to CB1 receptor was assessed in competition displacement assays using [^3H]CP-55,940 as the radioligand and crude membranes from mouse brain for CB1 receptor. All data were in triplicates with Ki values determined from three independent experiments.
Radioligand binding assay. Binding of the tested compounds to CB1 receptor was assessed in competition displacement assays using [3H]CP-55,940 as the radioligand and crude membranes from mouse brain for CB1 receptor. Membranes were extracted according to an established protocol previously described by Catani V. M. and Gasperi V.. Compounds were tested at different concentrations (10-5M-10-11M) and their ability to displace [3H]CP-55,940 was evaluated. Membranes with bound [3H]CP-55,940 were separated and washed from free ligand by vacuum filtration and bound [3H]CP-55,940 radioactivity was measured using a […]. All data were in triplicates with Ki values extracted by nonlinear regression analysis using GraphPad Prism software.

[9] = system: mice with diet-induced obesity (DIO); test: HFD-induced kidney hyperfiltration; type: in vivo, mouse
Description: as §1

mice [10] = test: Antagonizing cannabinoid (HU-210)-induced hypomotility; type: in vivo, mouse; conditions: for increase in immobility induced by HU-210: HU-210 30 μg/kg ip, rimonabant 10 mg/kg ip, BNS-002 10, 20 and 50 mg/kg
Description: as §2
Antagonizing cannabinoid-induced hypomotility. The ability of the different compounds to inhibit the hypomotility induced by HU210 (cannabinoid agonist) was evaluated. […] A half an hour thereafter, mice received a single dose of HU210 (30 ug/kg, IP) and their locomotor activity was evaluated as described above.

[11] = Tissue levels of antagonists (brain penetrance); type: in vivo, mouse; conditions: mice, 3 and 10 mg/kg ip, 1 hour
Description: Tissue levels of antagonists. […] Blood was collected, and the mice were perfused with phosphate buffered saline for 1 min to remove drug from the intravascular space before removing the brain and liver. Drug levels in tissue homogenates and plasma were determined by using LC-MS/MS.

[12] = mice on high-fat diet, 20 mg/kg/day for 20 days
[13] = DIO mice, 20 mg/kg/day for 20 days
[14] = 7 days, rimonabant 10 mg/kg/d, BNS-002 30 mg/kg ip

T1 sequence (P47746 whole entry): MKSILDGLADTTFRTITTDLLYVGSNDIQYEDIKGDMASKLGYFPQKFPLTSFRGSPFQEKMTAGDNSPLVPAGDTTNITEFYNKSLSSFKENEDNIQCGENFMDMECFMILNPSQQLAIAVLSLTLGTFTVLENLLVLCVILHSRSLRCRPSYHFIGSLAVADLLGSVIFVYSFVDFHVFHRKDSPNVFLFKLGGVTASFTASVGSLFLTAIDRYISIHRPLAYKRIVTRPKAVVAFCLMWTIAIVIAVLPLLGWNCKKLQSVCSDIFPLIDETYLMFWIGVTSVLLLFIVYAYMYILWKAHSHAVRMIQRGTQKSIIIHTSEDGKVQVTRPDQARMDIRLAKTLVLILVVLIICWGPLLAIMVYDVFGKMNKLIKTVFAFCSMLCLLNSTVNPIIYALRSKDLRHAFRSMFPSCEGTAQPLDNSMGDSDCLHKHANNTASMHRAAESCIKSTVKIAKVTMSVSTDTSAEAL

COC1=C(OC)C(=O)C(CCCCCCCCCCOC(=O)c2nn(-c3ccc(Cl)cc3Cl)c(-c3ccc(Cl)cc3)c2C)=C(C)C1=O [IDB, 10-(4,5-dimethoxy-2-methyl-3,6-dioxocyclohexa-1,4-dien-1-yl)decyl 5-(4-chlorophenyl)-1-(2,4-dichlorophenyl)-4methyl-1H-pyrazole-3-carboxylate]
functional profile by GTPγS binding (inverse agonism) (CB1 receptor [1]): inverse agonism profile | HFD-induced hepatic steatosis and liver injury ([2]; 20 mg/kg/day for 20 days): reduce | liver enzymes (AST, ALT, and ALP) ([2]; 20 mg/kg/day for 20 days): reduction | liver weight ([2]; 20 mg/kg/day for 20 days): decrease | activity profile / hyperactivity vs vehicle group (mice [3]): no significant hyperactivity | metabolic parameters (respiratory quotient, VO2, VCO2, total energy expenditure, fat oxidation, carbohydrate oxidation) ([4]; 20 mg/kg/day for 20 days, over a 24 hr period): significant changes | fasting glucose levels [5, 12]: reduced | fed glucose levels [5, 12]: reduced | glucose tolerance [5, 12]: reduced | glycosuria [5, 12]: increases | insulin sensitivity [5, 12]: improved | body weight [6, 13]: reduced | daily and total food intake [6, 13]: reduced | fat mass [6, 13]: reduced | lean mass [6, 13]: increased | dyslipidemia in DIO mice [7]: improve | HDL ([7]; DIO mice): reduce | HDL-to-LDL ratio ([7]; DIO mice): increase | LDL ([7]; DIO mice): reduce | total cholesterol ([7]; DIO mice): reduce | triglycerides ([7]; DIO mice): reduce | Ki (CB1 receptor [8]; range of Ki values (FIGS. 12-14), read-out: Ki values varying for each substance, ranging from): 1.9 to 135 nM | Ki (CB1 receptor [8]; read-out: Ki for CB1 receptor): 256 nM | HFD-induced kidney hyperfiltration ([9]; IDB, compared to the control): no effect

Cc1c(C(=O)NN2CCCCC2)nn(-c2ccc(Cl)cc2Cl)c1-c1ccc(Cl)cc1 [rimonabant, reference compound]
HFD-induced hepatic steatosis (fat vacuoles in the liver) [2]: completely reversed | activity profile in mice (mice [3]; rimonabant 10 mg/kg ip, BNS-002 10, 20 and 50 mg/kg ip): marked increase | activity profile / hyperactivity vs vehicle group (mice [3]): marked increase | HFD-induced reduction in VO2 [4]: upregulate | HFD-induced reduction in fat oxidation [4]: upregulate | HFD-induced reduction in total energy expenditure [4]: upregulate | HFD-induced glucose intolerance [5]: completely reversed | HFD-induced hyperglycemia [5]: completely reversed | increased adiposity of mice on HFD ([6]; 10 mg/kg/d ip, 28 days): significantly reduced | overweight of mice on HFD ([6]; 10 mg/kg/d ip, 28 days): significantly reduced | overweight of mice on HFD [6, 14]: significantly reduced | total caloric intake ([6]; DIO mice, 10 mg/kg/d ip): ability to reduce | hypomotility induced by HU210 (mice [10]; HU210 30 ug/kg IP, rimonabant 10, TMP 35, EST 40, IDB 20 mg/kg IP): significantly blocked | increase in immobility induced by HU-210 (mice [10]): completely blocked

CCCCCCCCCCCCCCCCCCNC(=O)c1nn(-c2ccc(Cl)cc2Cl)c(-c2ccc(Cl)cc2)c1C [BNS-002, 5-(4-chlorophenyl)-1-(2,4-dichlorophenyl)-4-methyl-N-octadecyl-1H-pyrazole-3-carboxamide]
functional profile by GTPγS binding (inverse agonism) (CB1 receptor [1]): inverse agonist | GTPγS binding in mouse brain membranes (CB1 receptor [1]; compound alone): reduces GTPγS binding | action of the potent CB1 receptor agonist HU-210 on GTPγS binding (CB1 receptor [1]; with HU-210): able to ameliorate | HFD-induced hepatic steatosis (fat vacuoles in the liver) [2]: partially | brain levels [11]: reduced | brain penetrance [11]: markedly reduced | serum levels [11]: increased | HFD-induced reduction in VO2 [4]: upregulate | HFD-induced reduction in fat oxidation [4]: upregulate | HFD-induced reduction in total energy expenditure [4]: upregulate | HFD-induced glucose intolerance [5]: completely reversed | HFD-induced hyperglycemia [5]: completely reversed | increased adiposity of mice on HFD ([6]; 10 mg/kg/d ip, 28 days): significantly reduced by rimonabant only | overweight of mice on HFD ([6]; 10 mg/kg/d ip, 28 days): significantly reduced by rimonabant only | body weight reduction ([6]; 7 days, BNS-002 15 mg/kg ip): no effect | overweight of mice on HFD [6, 14]: significantly reduced | Ki (CB1 receptor [8]; read-out: Ki for CB1 receptor): 4.96 nM | affinity for CB1 receptor (in words) (CB1 receptor [8]; radioligand displacement): retains high affinity and selectivity | HFD-induced kidney hyperfiltration ([9]; BNS-002): completely normalized | increase in immobility induced by HU-210 (mice [10]): unaffected

From patent publication US12473270B2, “CB1R receptor blockers with acyclic backbones” (YISSUM RESEARCH DEVELOPMENT COMPANY OF THE HEBREW …, priority 2019, dated 2025)
